Literature values in patent US11053254B2, “Crystalline forms of mitomycin C for treatment of cancer” (TRANSGENEX NANOBIOTECH, INC., priority 2018, dated 2021).

Conditions: acidic solutions with pH<6

In the case of CO[C@@]12[C@H](COC(N)=O)C3=C(C(=O)C(C)=C(N)C3=O)N1C[C@@H]1N[C@@H]12 [Mitomycin C, [(4S,6S,7R,8S)-11-amino-7-methoxy-12-methyl-10,13-dioxo-2,5-diazatetracyclo[7.4.0.0^2,7.0^4,6]trideca-1(9),11-dien-8-yl]methyl carbamate], the “degradation in acidic solutions” value is listed as “rapid degradation”.
